Calls of active or inactive are those of the source.
Key:
[1] = target: Beta-galactosidase (Escherichia coli, UniProt Q8VNN2); assay: Dose response counterscreen for EBI2 assay utilizing the enzyme, b-galactosidase.; type: functional
[2] = HEp-2 cell cytotoxicity, dose response, cytotoxicity control for RSV inhibitor project, HTS (AID 2410); type: functional; details: human respiratory syncytial virus
[3] = Luminescence Cell-Based Dose Retest to Confirm Inhibitors of Cancer Stem Cells. [Related pubchem assays (depositor defined):AID2717, AID2721]; type: functional; details: Homo sapiens
[4] = target: Heat shock protein HSP 90-alpha (Homo sapiens, UniProt P07900); type: functional, organism-based
[5] = test system: HEK293; assay: cells; type: functional, cell-based; details: Homo sapiens
[6] = target: T1, Nuclear receptor subfamily 0 group B member 1 (Homo sapiens, UniProt P51843); assay: Luminescence-based cell-based high throughput dose response assay for inhibitors of the orphan nuclear receptor subfamily 0, group B, member 1 (DAX1; NR0B1). [Related pubchem assays (depositor defined):AID504766, AID504790]; type: functional
T1 sequence (P51843 whole entry): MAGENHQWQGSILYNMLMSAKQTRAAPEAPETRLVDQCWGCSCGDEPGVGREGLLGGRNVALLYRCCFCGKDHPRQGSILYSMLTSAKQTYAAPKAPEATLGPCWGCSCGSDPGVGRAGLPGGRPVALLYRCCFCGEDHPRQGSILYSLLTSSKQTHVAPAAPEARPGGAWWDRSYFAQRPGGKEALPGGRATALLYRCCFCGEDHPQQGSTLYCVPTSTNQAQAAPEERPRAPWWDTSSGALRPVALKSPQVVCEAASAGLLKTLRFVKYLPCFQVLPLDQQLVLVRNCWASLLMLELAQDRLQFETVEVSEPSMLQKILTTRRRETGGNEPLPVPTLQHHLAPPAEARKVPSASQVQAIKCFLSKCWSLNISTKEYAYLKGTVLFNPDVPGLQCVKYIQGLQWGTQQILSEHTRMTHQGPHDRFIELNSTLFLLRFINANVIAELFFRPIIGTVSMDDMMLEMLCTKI

[7] = target: T2, Cysteine protease ATG4B (Homo sapiens, UniProt Q9Y4P1); type: functional;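 note: Fluorescence-based dose-response confirmation assay measuring inhibition of ATG4B activity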
T2 sequence (Q9Y4P1 whole entry): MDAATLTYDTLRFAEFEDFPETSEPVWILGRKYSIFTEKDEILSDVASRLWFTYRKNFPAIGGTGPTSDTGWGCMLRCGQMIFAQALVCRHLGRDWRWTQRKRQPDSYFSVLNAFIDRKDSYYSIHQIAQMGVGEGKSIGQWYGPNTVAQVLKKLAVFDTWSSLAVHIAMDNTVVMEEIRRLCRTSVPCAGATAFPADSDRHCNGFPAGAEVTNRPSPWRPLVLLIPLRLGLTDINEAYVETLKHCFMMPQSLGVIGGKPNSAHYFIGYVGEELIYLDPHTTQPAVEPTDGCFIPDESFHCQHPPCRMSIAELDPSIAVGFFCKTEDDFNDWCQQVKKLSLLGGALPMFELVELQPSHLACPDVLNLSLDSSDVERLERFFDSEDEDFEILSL

[8] = target: Phospholipase A2 (Homo sapiens, UniProt P04054); type: functional;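 note: confirmatory dose-response counterscreen on phospholipase A2, testing hits that came from an ultra-high-throughput screen for ATG4B inhibitors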
Sequence of Phospholipase A2 (P04054 whole entry): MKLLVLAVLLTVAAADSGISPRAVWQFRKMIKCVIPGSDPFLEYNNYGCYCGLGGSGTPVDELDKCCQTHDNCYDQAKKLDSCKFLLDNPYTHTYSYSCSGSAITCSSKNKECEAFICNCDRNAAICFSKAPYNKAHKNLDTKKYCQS

[9] = target: T3, Estrogen receptor beta (Homo sapiens, UniProt Q92731);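 note: recombinant ER-beta bound to coactivator SRC1 peptide in presence of estradiol agonist; inhibitors block coactivator peptide binding and lower the FRET signal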
T3 sequence (Q92731 whole entry): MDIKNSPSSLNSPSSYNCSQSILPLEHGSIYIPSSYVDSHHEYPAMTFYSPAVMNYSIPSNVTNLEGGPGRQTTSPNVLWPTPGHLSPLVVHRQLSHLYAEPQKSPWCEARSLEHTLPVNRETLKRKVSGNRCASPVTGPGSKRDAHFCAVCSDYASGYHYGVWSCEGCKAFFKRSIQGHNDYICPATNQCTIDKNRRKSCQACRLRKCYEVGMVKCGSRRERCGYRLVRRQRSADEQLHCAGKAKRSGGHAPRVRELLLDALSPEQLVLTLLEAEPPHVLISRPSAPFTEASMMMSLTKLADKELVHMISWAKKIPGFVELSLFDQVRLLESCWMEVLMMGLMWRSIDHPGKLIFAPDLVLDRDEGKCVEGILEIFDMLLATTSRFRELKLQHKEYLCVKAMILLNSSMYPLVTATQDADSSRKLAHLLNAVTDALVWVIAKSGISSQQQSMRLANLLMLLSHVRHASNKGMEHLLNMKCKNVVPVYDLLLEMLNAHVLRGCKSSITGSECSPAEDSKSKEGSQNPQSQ

[10] = target: T3, Estrogen receptor beta; assay: ERβ–SRC-3 coactivator interaction inhibitors, confirmation, orthogonal assay, biochemical, ELISA, streptavidin-HRP readout (AID 1060)
[11] = target: T4, Polyadenylate-binding protein 1 (Homo sapiens, UniProt P11940); assay: PABP1 MLLE–PAM2 interaction inhibitors, dose response, miRNA deadenylation inhibitor project, biochemical, fluorescence polarization, Cy5-PAM2 peptide, secondary (AID 602260); type: functional; details: read-out: IC50_Mean
T4 sequence (P11940 whole entry): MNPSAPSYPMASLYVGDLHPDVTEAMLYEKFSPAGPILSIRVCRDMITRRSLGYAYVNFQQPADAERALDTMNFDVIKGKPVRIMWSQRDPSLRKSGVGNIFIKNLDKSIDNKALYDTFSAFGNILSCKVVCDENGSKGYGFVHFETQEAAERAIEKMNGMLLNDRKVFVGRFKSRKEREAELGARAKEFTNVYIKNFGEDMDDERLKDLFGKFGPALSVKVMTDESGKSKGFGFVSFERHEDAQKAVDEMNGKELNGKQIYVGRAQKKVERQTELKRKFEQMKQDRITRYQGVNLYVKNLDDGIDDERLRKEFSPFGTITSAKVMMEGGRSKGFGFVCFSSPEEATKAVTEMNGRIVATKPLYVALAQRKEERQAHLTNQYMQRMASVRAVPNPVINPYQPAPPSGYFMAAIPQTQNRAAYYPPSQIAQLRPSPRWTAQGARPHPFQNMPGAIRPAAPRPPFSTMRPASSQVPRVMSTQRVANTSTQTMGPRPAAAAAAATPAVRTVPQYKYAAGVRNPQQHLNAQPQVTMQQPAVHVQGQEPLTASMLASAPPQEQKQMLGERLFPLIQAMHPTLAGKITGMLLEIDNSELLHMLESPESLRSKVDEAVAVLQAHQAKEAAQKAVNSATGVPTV

[12] = target: T4, Polyadenylate-binding protein 1; assay: PABP1 MLLE–PAM2 binding inhibitor potency, dose response, biochemical, fluorescence polarization, FITC-PAM2 peptide (AID 602259); type: functional; details: read-out: IC50_Mean
[13] = target: T5, fMet-Leu-Phe receptor (Homo sapiens, UniProt P21462); assay: FPR ligands, dose response (AID 519); type: functional
T5 sequence (P21462 whole entry): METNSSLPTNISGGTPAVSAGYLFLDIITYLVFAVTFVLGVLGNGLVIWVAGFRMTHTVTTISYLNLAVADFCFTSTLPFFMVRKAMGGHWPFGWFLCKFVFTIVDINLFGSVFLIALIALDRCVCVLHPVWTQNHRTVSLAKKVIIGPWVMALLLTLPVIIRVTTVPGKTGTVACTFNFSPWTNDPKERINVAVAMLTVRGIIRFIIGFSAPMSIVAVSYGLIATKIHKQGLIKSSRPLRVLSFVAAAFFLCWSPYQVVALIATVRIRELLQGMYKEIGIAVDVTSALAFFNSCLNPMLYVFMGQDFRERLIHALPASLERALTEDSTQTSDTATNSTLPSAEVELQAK

[14] = AlphaScreen signal interference compounds, dose response, artefact control for ARNT-TACC3 interaction inhibitor project, biochemical, luminescence, cherry-pick (AID 651705); type: functional;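 note: AlphaScreen bead proximity signal that flags compounds interfering with the detection technology; potency reflects signal decrease which marks the compound as an assay artifact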
[15] = target: Nonstructural protein 1 (Influenza A virus, UniProt Q194T2); type: functional, Influenza A virus (A/California/07/2009(H1N1))
Sequence of Nonstructural protein 1 (Q194T2 whole entry): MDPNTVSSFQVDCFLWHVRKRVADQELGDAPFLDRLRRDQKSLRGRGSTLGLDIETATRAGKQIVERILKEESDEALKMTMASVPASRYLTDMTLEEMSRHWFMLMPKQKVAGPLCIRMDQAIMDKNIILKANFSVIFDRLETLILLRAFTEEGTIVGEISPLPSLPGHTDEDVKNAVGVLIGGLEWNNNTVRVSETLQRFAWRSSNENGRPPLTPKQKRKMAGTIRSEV

[16] = inhibitors of intracellular T. cruzi replication, confirmation, NIH3T3 host cells, beta-gal luminescence (AID 2044); type: functional, cell-based;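 note: intracellular parasites grown in NIH/3T3 mouse fibroblasts as host cells; luminescent beta-galactosidase reporter signal from transgenic T. cruzi replicating inside host cells; inhibitors lower the luminescence signal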
[17] = cytotoxicity toward NIH3T3 fibroblasts, dose response, counter-screen, cell-based, ATP luminescence, mouse fibroblasts (AID 2010); type: functional;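 note: cells exposed to compound for about 90 hours before reading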
[18] = target: T6, Low molecular weight phosphotyrosine protein phosphatase (Homo sapiens, UniProt P24666); type: functional; details: read-out: IC50_Mean;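 note: Dose-response confirmation assay measuring inhibition of LMPTP enzyme activity by fluorescence intensity read-out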
T6 sequence (P24666 whole entry): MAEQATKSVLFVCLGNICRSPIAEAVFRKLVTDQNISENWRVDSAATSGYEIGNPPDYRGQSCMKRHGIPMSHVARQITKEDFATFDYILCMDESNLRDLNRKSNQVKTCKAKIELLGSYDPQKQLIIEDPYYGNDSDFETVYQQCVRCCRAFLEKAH

[19] = miR-122 activators in hepatoma reporter cells, dose response, cell-based, Huh7 psiCHECK-miR122, Renilla luciferase, cherry-picked (AID 651956); type: functional;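 note: huh7 hepatoma cells stably carrying a psiCHECK-2 miR-122 sensor plasmid; renilla luciferase signal reporting endogenous miR-122 activity after 48 h compound exposure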
[20] = HEK293T cytotoxicity, dose response, cytotoxicity control for miR-122 modulator project, cell-based, inhibitor set, cherry-pick, set 2 (AID 720697); type: functional
[21] = test system: HT-1080; assay: cytotoxicity in HT1080 fibrosarcoma cells, cell-based, fluorescence readout (AID 620); type: functional; details: Homo sapiens
[22] = test system: BJ; assay: cytotoxicity toward BJ-TERT fibroblasts, dose response, cell-based, RAS-independent, luminescence (AID 1933); type: functional; details: Homo sapiens
[23] = test system: BJ; assay: cells; type: functional, cell-based; details: Homo sapiens
[24] = test system: BJ; assay: cytotoxicity toward BJ-TERT-LT-ST fibroblasts, dose response, cell-based, RAS-independent, luminescence (AID 1935); type: functional; details: Homo sapiens;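 note: BJ fibroblasts immortalized with TERT plus LT and ST oncogenes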
[25] = cytotoxicity toward DRD oncogenic fibroblasts, dose response, cell-based, non-viral oncogenic, luminescence (AID 1934); type: functional; details: Homo sapiens
[26] = test system: BJ; assay: cytotoxicity toward Ras-transformed BJeLR fibroblasts, dose response, cell-based, alamar blue fluorescence, cherrypicked samples (AID 2631); type: functional; details: Homo sapiens;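 note: confirmatory dose-response assay in RAS-dependent BJ fibroblasts engineered with TERT, LT and ST, with cytotoxicity read by fluorescence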
[27] = test system: INS1; assay: beta cell apoptosis inhibitors, cytokine rescue, dose response, luminescence, retest (AID 449756); type: functional, cell-based; details: Rattus norvegicus;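 note: cell death triggered by IL-1 beta plus TNF-alpha plus IFN-gamma mixture; protective hits raise ATP signal compared with cytokine alone wells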
[28] = target: T7, Fatty acid synthase (Homo sapiens, UniProt P49327); assay: FAS thioesterase domain inhibitors, dose response, biochemical, endpoint fluorescence intensity, uHTS hits (AID 624327); type: functional;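 note: fluorescence from hydrolysis of an O-methyl fluorescein acyl ester substrate by the enzyme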
T7 sequence (P49327 whole entry, the tested form may be a part): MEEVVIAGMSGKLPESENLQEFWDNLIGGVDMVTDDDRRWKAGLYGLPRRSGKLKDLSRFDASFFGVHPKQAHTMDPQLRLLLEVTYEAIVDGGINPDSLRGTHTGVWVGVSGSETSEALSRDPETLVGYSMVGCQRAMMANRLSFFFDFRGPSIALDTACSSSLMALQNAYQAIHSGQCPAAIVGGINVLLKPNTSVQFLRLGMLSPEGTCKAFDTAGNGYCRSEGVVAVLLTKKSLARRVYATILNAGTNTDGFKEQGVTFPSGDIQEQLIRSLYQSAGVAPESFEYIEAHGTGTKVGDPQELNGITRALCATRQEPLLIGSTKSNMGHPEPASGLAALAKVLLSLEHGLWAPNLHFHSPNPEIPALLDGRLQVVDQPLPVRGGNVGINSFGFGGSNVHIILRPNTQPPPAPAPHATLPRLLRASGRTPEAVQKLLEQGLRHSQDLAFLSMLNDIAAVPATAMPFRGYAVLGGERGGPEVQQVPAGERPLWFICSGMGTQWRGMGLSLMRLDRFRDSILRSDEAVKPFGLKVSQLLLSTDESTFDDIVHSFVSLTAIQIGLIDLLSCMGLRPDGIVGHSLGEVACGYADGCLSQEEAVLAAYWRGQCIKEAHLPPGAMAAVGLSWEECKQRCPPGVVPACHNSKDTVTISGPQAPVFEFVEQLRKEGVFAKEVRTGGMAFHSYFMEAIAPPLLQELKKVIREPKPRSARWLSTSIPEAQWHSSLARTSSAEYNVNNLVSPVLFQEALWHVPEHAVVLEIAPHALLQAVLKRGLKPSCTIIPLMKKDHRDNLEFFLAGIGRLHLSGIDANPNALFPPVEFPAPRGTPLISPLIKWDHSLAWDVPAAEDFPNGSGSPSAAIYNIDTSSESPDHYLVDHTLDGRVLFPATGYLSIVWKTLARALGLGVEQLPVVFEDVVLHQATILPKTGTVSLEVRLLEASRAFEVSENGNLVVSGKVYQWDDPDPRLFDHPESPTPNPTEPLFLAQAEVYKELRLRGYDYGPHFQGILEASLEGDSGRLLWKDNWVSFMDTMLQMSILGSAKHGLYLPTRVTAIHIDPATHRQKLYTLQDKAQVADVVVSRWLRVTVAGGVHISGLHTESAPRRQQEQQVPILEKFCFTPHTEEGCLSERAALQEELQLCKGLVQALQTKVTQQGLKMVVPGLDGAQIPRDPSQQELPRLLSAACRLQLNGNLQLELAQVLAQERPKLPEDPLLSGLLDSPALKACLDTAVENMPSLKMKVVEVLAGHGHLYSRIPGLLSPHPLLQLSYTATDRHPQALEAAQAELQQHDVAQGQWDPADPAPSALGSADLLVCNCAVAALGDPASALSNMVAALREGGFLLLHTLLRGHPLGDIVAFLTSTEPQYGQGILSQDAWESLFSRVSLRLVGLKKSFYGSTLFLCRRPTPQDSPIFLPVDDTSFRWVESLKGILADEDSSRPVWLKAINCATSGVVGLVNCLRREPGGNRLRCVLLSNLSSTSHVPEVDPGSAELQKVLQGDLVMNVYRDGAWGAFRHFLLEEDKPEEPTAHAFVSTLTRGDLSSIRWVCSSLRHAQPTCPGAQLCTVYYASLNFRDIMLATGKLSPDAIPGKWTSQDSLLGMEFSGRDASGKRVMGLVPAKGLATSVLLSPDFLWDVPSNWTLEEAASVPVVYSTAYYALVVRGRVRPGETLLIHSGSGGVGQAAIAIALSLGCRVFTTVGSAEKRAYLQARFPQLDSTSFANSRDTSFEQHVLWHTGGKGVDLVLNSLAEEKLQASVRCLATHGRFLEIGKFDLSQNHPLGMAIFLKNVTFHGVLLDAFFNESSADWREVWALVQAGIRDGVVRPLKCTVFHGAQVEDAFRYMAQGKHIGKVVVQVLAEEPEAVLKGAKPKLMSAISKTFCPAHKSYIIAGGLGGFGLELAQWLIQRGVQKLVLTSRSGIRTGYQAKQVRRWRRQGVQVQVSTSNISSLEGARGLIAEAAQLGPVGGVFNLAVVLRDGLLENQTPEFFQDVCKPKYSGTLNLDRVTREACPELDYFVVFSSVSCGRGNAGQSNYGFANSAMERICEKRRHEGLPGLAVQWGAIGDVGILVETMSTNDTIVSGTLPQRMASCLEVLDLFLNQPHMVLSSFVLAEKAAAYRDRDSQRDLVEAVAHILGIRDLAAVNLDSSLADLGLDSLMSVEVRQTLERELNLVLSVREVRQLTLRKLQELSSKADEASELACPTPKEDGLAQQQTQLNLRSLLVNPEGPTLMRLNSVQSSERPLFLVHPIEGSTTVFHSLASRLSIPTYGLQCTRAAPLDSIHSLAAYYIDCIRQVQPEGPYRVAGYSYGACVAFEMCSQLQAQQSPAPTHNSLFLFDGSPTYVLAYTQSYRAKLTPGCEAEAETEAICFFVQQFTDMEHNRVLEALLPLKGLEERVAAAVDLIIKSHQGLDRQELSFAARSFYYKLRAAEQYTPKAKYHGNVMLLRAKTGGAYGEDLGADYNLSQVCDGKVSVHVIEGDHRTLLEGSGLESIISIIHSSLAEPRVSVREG

[29] = target: T7, Fatty acid synthase; assay: FAS thioesterase domain inhibitors, dose response, biochemical, kinetic fluorescence intensity (AID 624326); type: functional;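 note: rate of fluorescence rise from hydrolysis of a fluorogenic O-methyl fluorescein ester substrate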
[30] = microbe, parasite or virus in culture; type: functional; details: Mycobacterium tuberculosis
[31] = target: Melanocortin receptor 4 (Homo sapiens, UniProt P32245); type: functional, cell-based;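 note: Cell-based assay with luminescence read-out, confirmatory dose-response testing for agonist activity of biased ligands at MC4R; human U2OS cells with tagged receptor and beta-arrestin; potency of agonists that increase receptor coupling to beta-arrestin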
[32] = cells; type: functional

Sequence of Beta-galactosidase (Q8VNN2 whole entry): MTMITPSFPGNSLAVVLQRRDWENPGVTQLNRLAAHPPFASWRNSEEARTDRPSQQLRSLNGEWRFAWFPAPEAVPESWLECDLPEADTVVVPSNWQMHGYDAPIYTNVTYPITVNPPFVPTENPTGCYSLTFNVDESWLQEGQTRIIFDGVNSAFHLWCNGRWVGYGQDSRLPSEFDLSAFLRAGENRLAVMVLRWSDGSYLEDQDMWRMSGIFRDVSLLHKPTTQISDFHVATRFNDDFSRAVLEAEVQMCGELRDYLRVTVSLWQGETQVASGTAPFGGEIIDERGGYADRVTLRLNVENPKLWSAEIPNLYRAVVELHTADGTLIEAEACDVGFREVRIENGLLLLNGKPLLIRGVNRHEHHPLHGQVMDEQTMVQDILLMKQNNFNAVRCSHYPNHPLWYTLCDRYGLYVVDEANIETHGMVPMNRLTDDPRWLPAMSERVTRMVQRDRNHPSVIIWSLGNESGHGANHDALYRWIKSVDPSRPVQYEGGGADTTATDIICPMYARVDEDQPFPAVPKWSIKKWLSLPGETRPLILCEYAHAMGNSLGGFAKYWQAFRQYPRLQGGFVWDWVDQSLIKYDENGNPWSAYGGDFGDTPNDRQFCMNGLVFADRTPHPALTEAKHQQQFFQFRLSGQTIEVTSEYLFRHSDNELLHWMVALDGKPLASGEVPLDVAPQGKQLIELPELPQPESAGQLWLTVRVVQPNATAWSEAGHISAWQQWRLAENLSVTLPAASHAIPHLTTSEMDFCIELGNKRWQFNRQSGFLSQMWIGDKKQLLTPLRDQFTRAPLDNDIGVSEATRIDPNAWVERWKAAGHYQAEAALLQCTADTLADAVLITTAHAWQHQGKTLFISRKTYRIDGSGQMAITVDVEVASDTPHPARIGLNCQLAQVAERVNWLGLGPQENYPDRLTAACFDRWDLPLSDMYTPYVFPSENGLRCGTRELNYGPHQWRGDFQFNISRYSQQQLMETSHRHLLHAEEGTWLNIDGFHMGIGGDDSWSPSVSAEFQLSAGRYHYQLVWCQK

Compound: Cc1cc(C)c2c(=O)n3c(nc2c1)C(Cc1ccccc1)NC(=O)c1cc2ccccc2cc1-3 (configuration not stated)
- IC50 [1]: > 80 µM (inactive)

Compound: COc1cc(N=Nc2ccc3ccccc3c2)ccc1O
- CC50 [2]: 23.3 µM (active)
- AC50 [3]: 2.65 µM (active)
- AC50 [4]: 10.7 µM (active)
- IC50 [5]: > 67.6 µM (inactive)
- IC50 [6]: > 67.6 µM (inactive)

Compound: O=C(O)/C=C/c1ccccc1Oc1ccc(Cl)cc1Cl
- IC50 [7]: 11.5 µM (active)
- IC50 [8]: 62.7 µM (inactive)

Compound: COc1cc2c3c(c1)/C(=C1/SC(NC(C)=O)=NC1=O)C(=O)N3C(C)(C)C=C2C
- IC50 [9]: 3.37 µM (active)
- IC50 [10]: 96.2 µM (not active)
- IC50 [11]: > 66 µM (inactive)
- IC50 [12]: > 66 µM (inactive)
- Ki [13]: > 66.7 µM (inactive)

Compound: COc1ccc2cnn(-c3ccccc3)c(=O)c2c1OC
- Ki [13]: > 66.7 µM (inactive)

Compound: COc1cccc(/C=N/NC(=O)c2cccs2)c1
- IC50 [5]: > 67.5 µM (inactive)
- IC50 [6]: > 67.5 µM (inactive)

Compound: Cc1ccc(S(=O)(=O)N2CCN(C(=O)/C=C/c3ccccc3)CC2)cc1C
- IC50 [1]: > 80 µM (inactive)

Compound: CC(=O)Nc1cccc(C(=O)OCC(=O)Nc2nnc(-c3ccccc3)o2)c1
- AC50 [14]: 96.8 µM (active)

Compound: O=C(CSc1nnc(-c2cccnc2)o1)Nc1nccs1
- IC50 [15]: 10.9 µM (active)
- AC50 [14]: 129 µM (active)

Compound: COc1ccccc1N(C(=O)c1ccncc1)c1nc(-c2ccc([N+](=O)[O-])cc2)cs1
- CC50 [2]: 29.6 µM (active)
- EC50 [16]: 0.448 µM (active)
- EC50 [17]: > 60 µM (inconclusive)
- IC50 [1]: > 80 µM (inactive)

Compound: O=C(COC(=O)c1cccc(O)c1)Nc1nnc(-c2ccccc2)o1
- AC50 [14]: 74.4 µM (active)

Compound: Cc1cc(C(=O)N2CCCC(C(=O)c3ccc(Oc4ccccc4)cc3)C2)[nH]n1 (configuration not stated)
- IC50 [7]: 28.3 µM (inactive)
- IC50 [8]: 11.9 µM (active)

Compound: CC(C)(C)OC(=O)[C@H](Cc1ccccc1)NC(=O)c1ncn2c1c(O)nc1ccc(Br)cc12
- IC50 [18]: 5.17 µM (active)

Compound: Cc1cc(C)nc(NC(=O)CSc2nn(-c3ccccc3)c(=S)s2)n1
- IC50 [5]: > 67.5 µM (inactive)
- IC50 [6]: > 67.5 µM (inactive)

Compound: CCCc1ccc(S(=O)(=O)NCCc2ccncc2)cc1
- AC50 [19]: 34.1 µM (active)
- AC50 [20]: 8.02 µM (active)

Compound: CNC(=O)C[C@@H]1CC[C@@H]2[C@H](COc3ccc(NC(=O)Nc4cccc(C)c4)cc3C(=O)N2C)O1
- AC50 [19]: 24.9 µM (active)

Compound: CC(C)(C)c1ccc(OCC(O)CSc2nc[nH]n2)cc1 (configuration not stated)
- EC50 [21]: > 50 µM (not active)

Compound: O=C(O)CC(CC(=O)Nc1ccc(F)c(Cl)c1)c1ccc(Cl)cc1Cl (configuration not stated)
- IC50 [5]: > 67.5 µM (inactive)
- IC50 [6]: > 67.5 µM (inactive)

Compound: COc1ccccc1/C=C1\SC(=O)N(CCC(=O)NCCCn2ccnc2)C1=O
- EC50 [22]: > 150 µM (not active)
- EC50 [23]: > 150 µM (inconclusive)
- EC50 [24]: > 150 µM (not active)
- EC50 [25]: > 150 µM (not active)
- AC50 [3]: 13.5 µM (active)
- EC50 [26]: > 133 µM (inactive)
- AC50 [27]: 5.64 µM (active)

Compound: Clc1ccc(OCCn2ccnc2)c(Cl)c1
- IC50 [5]: > 67.5 µM (inactive)
- IC50 [6]: > 67.5 µM (inactive)

Compound: COc1ccc2c(c1)C(c1ccc(C)o1)=NNC(c1ccccc1)=N2
- IC50 [7]: 12.9 µM (active)
- IC50 [8]: 8.91 µM (active)

Compound: CC1CCN(c2nc(-c3ccccc3)c(C#N)c(=O)[nH]2)CC1
- Ki [13]: > 66.7 µM (inactive)

Compound: O=S(=O)(c1ccccc1)c1nnn2c1nc(NC1CCN(Cc3ccccc3)CC1)c1ccccc12
- IC50 [28]: 1.03 µM (active)
- IC50 [18]: 11.5 µM (active)
- IC50 [29]: 0.793 µM (active)

Compound: O=C(NCc1ccc2c(c1)OCO2)c1c(O)nc2sccn2c1=O
- CC50 [30]: > 40 µM (active)
- IC50 [18]: 80 µM (inactive)

Compound: COc1ccc(C(NC(=O)C2CCN(CCOc3ccc(Cl)cc3Cl)CC2)c2cccs2)cc1 (configuration not stated)
- EC50 [31]: > 89.2 µM (inactive)

Compound: Clc1ccc(-c2ccc(CNCc3ccccn3)o2)cc1
- IC50 [32]: 3.21 µM (active)
- AC50 [14]: 95.9 µM (active)

Compound: O=C(/C=C/c1ccccc1)N1CCC(Cc2ccccc2)CC1
- IC50 [1]: > 80 µM (inactive)

Source: ChEMBL document CHEMBL1201862, “PubChem BioAssay data set” (2004)
